From patent US9260504B2, “N- and C-terminal substituted antagonistic analogs of GH-RH” (University of Miami, priority 2008, dated 2016)
Marks after values point to notes of the source that are not given here.

What was measured:
[1] = system: Panc-1 human pancreatic cancer; test: Panc-1 human pancreatic cancer xenografts in nude mice; assay type: in vivo; settings: 10 μg/day s.c. for 36 days
Description: Panc-1 cancers were transplanted s.c. into both flank areas of 60 female nude mice, and allowed to grow for 105 days before starting the treatment with GH-RH antagonists. The mice were randomly assigned into 3 experimental groups with 8 animals in each group and received single daily injections for 36 days as follows: 1. Control (vehicle solution); 2. JMR-132 (10 μg/day s.c.); 3. Peptide 11457 (10 μg/day s.c.). Tumor volumes were measured once a week. The experiment was ended on day 82 by sacrificing the mice under Isoflurane anesthesia. Resulting tumors were cleaned, weighed, and snap-frozen until further analyses. Statistical analyses of the measurement results were done by two-tailed t-test, p<0.05 being considered significant. Data are presented as the means±S.E.

[2] = system: PC-3 human hormone-independent prostate cancer; test: PC-3 human prostate cancer xenografts in nude mice, Experiment 3; assay type: in vivo; settings: 2 μg/day s.c., 28 days
Description: Male nude mice were implanted s.c. with 3 mm^3 pieces of PC-3 human hormone-independent prostate cancer tissue on both flanks. When tumors reached a volume of approximately 50 mm^3, the mice were divided into 12 experimental groups with 8 to 10 animals in each group and received single daily injections for 28 days as follows: 1. Control (vehicle solution); 2. JMR-132 (10 μg/day s.c.); 3. Peptide 11113 (2 μg/day s.c.); 4. Peptide 11119 (2 μg/day s.c.); 5. Peptide 11209 (2 μg/day s.c.); 6. Peptide 11313 (2 μg/day s.c.); 7. Peptide 11408 (2 μg/day s.c.); 8. Peptide 11435 (2 μg/day s.c.); 9. Peptide 11457 (2 μg/day s.c.); 10. Peptide 11459 (2 μg/day s.c.); 11. Peptide 11469 (2 μg/day s.c.); 12. Peptide 11491 (2 μg/day s.c.).
Tumor volumes were measured once a week. The experiment was ended on day 28 by sacrificing the mice under Isoflurane anesthesia. Resulting tumors were cleaned, weighed, and snap-frozen until further analyses. Statistical analyses of the measurement results were done by two-tailed t-test, p<0.05 being considered significant.

[3] = system: rat anterior pituitary adenylate cyclase; settings: cited from earlier work
GH secretion = settings: cited from earlier work
[4] = system: Human ovarian cancer SKOV3 cells; test: SKOV3 ovarian cancer xenografts in nude mice; assay type: in vivo; settings: 5 μg/day s.c.
Source text: Human ovarian cancer SKOV3 cells growing exponentially were implanted info five female nude mice by subcutaneous (s.c.) injection of 10^7 cells in both flanks. Tumors That resulted after approximately 4 weeks in donor animals were then aseptically dissected and mechanically minced. Three mm^3 pieces of tumor tissue were transplanted subcutaneously into experimental animals with a trocar needle. When tumors reached an appropriate size (approximately 50 mm^3), mice were randomly divided into […]. The first was the control group, the second group was treated with daily s.c. injections of 5 μg P-11313, the third group was treated with daily s.c. injections of 5 μg P-11604, the fourth group was treated with daily s.c. injections of 5 μg P-11610. Tumor volume (length×width×height×0.5236) was measured every week and mean tumor volumes of each group were compared by Student's t-test. The study lasted 49 days. One week after end of treatment, mice were killed under anesthesia, tumors were snap frozen and stored at −70° C.

[5] = system: H-460 human non-small cell lung cancer; test: H-460 human non-SCLC xenografts in nude mice, Experiment 2; assay type: in vivo; settings: 5 μg/day s.c.; for Tumor growth after 4 weeks (%): means±S.E.; for Inhibition (%): after 4 weeks
Description: (§1) Male nude mice were implanted s.c. with 3 mm^3 pieces of H-460 human non-SCLC tumor tissue on both flanks. When tumors had grown to a mean volume of approximately 90 mm^3, the mice were randomly assigned into 12 experimental groups with 8 to 10 animals in each group and received single daily injections for 28 days as follows: 1. Control (vehicle solution); 2. JMR-132 (10 μg/day s.c.); 3. Peptide 11109 (5 μg/day s.c.); 4. Peptide 11113 (5 μg/day s.c.); 5. Peptide 11119 (5 μg/day s.c.); 6. Peptide 11209 (5 μg/day s.c.); 7. Peptide 11313 (5 μg/day s.c.); 8. Peptide 11408 (5 μg/day s.c.); 9. Peptide 11435 (5 μg/day s.c.); 10. Peptide 11459 (5 μg/day s.c.); 11. Peptide 11469 (5 μg/day s.c.); 12. Peptide 11491 (5 μg/day s.c.). Tumor volumes were measured once a week. The experiment was ended on day 28 by sacrificing the mice under Isoflurane anesthesia. Resulting tumors were cleaned, weighed, and snap-frozen until further analyses. Statistical analyses of the measurement results were done by two-tailed t-test, p<0.05 being considered significant. Data are presented as the means±S.E.

[6] = system: H-460 human non-small cell lung cancer; test: H-460 human non-SCLC xenografts in nude mice, Experiment 1; assay type: in vivo; settings: 10 μg/day s.c., 28 days; means±S.E.
Description: as §1, with “4” for “12”, “with” for “with 8 to”, “1109 (10” for “11109 (5”, “11111 (10” for “11113 (5 μg/day s.c.); 5. Peptide 11119 (5 μg/day s.c.); 6. Peptide 11209 (5 μg/day s.c.); 7. Peptide 11313 (5 μg/day s.c.); 8. Peptide 11408 (5 μg/day s.c.); 9. Peptide 11435 (5 μg/day s.c.); 10. Peptide 11459 (5 μg/day s.c.); 11. Peptide 11469 (5 μg/day s.c.); 12. Peptide 11491 (5”

[7] = system: PC-3 human hormone-independent prostate cancer; test: PC-3 human prostate cancer xenografts in nude mice, Experiment 1; assay type: in vivo; settings: 10 μg/day s.c., daily for 35 days; means±S.E.
Description: (§2) Male nude mice were implanted s.c. with 3 mm^3 pieces of PC-3 human hormone-independent prostate cancer tissue on both flanks. When tumors reached a volume of approx. 50 mm^3, the mice were divided into 4 experimental groups with 8 to 10 animals in each group and received single daily injections for 35 days as follows: 1. Control (vehicle solution); 2. JMR-132 (10 μg/day s.c.); 3. Peptide 1109 (10 μg/day s.c.); 4. Peptide 11111 (10 μg/day s.c.); Tumor volumes were measured once a week. The experiment was ended on day 35 by sacrificing the mice under Isoflurane anesthesia. Resulting tumors were cleaned, weighed, and snap-frozen until further analyses. Statistical analyses of the measurement results were done by two-tailed t-test, p<0.05 being considered significant. Data are presented as the means±S.E.

pituitary receptors = target: T1, pituitary receptors (Homo sapiens, UniProt Q02643); settings: biological activity on the pituitary; cited from earlier work
T1 construct: host or cells: pituitary
T1 sequence (Q02643 23-423): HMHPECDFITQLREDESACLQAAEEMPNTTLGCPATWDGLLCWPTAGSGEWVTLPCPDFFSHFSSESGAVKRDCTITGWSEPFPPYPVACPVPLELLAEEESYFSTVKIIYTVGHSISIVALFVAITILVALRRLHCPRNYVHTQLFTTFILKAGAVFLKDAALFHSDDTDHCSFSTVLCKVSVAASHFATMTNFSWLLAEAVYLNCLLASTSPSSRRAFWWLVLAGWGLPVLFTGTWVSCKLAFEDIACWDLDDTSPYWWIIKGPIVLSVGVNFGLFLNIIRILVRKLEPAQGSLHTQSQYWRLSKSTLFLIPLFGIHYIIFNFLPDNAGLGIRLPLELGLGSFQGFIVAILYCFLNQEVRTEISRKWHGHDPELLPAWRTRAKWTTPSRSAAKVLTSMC

[8] = system: PC-3 human hormone-independent prostate cancer; test: PC-3 human prostate cancer xenografts in nude mice, Experiment 2; assay type: in vivo; settings: for Inhibition (%): tumor growth after 2 weeks
Description: as §2
Experiment 2 was similar to Experiment 1. Experiment 2 was started when PC-3 tumors had grown to approximately 50 mm^3 in volume. At this time, the animals were divided into 5 experimental groups with 8 animals in each group, and received single daily injections for 14 days as follows: 1. Control (vehicle solution); 2. JMR-132 (10 μg/day s.c.); 3. Peptide 1109 (5 μg/day s.c.); 4. Peptide 11109 (5 μg/day s.c.); 5. Peptide 11109 (2 μg/day s.c.). Further details of Experiment 2 are the same as for Experiment 1

Substance: [PhAc^0-Tyr^1, D-Arg^2, Cpa^6, Ala^8, Har^9, Tyr(Me)^10, His^11, Orn^12, Abu^15, His^20, Orn^21, Nle^27, D-Arg^28, Har^29-Ada^30]hGH-RH(1-29)NH2 [Peptide 11457]
- Tumor weights ([1]; end of experiment day 82): 76 ± 166 mg
- Tumor growth from day 1 to day 82 (%) ([1]; means±S.E.): 740 ± 1220 %
- Tumor volume on day 82 (mm^3) ([1]; means±S.E.): 262 ± 103* mm^3
- Effect on the growth of Panc-1 human pancreatic cancers ([1]; observed for at least 82 days): powerfully inhibited the growth of Panc-1 human pancreatic cancers
- Tumor growth inhibition after 4 weeks (%) [2]: 85.98%

Substance: [Ac-Tyr^1,D-Arg^2]hGH-RH(1-29)NH2 [standard antagonist]
- Effect on activation of adenylate cyclase by hGH-RH(1-29)NH2 [3]: prevent the activation of rat anterior pituitary adenylate cyclase
- Effect on GH levels (GH secretion; a patient with acromegaly): reduced GH levels
- Effect on nocturnal GH secretion (GH secretion; normal subjects, 400 μg/kg): eliminated nocturnal GH secretion

Substance: [(Ac-Amc)^0-Tyr^1, D-Arg^2, Cpa^6, Ala^8, Har^9, Tyr(Me)^10, His^11, Orn^12, Abu^15, His^20, Nle^27, D-Arg^28, Har^29-Agm^30]hGH-RH(1-29) [Peptide 11313]
- TU growth (%) ([4]; day 0 (baseline)): 100%
- TU growth (%) ([4]; day 7): 147.84%
- TU inhibition (%) ([4]; day 7): 31.04%
- TU growth (%) ([4]; day 14): 140%
- TU inhibition (%) ([4]; day 14): 50.04%
- TU growth (%) ([4]; day 21): 196.6%
- TU inhibition (%) ([4]; day 21): 63.83%
- TU growth (%) ([4]; day 28): 249.65%
- TU inhibition (%) ([4]; day 28): 70.35%
- TU growth (%) ([4]; day 35): 201.5%
- TU inhibition (%) ([4]; day 35): 77.43%
- TU growth (%) ([4]; day 42): 274.05%
- TU inhibition (%) ([4]; day 42): 77.83%
- TU growth (%) ([4]; day 49): 328.63%
- TU inhibition (%) ([4]; day 49): 74.16%
- Tumor growth after 4 weeks (%) ([5]; 28 days): 3091 ± 1215%
- Inhibition (%) [5]: 60.84%
- Tumor growth inhibition after 4 weeks (%) [2]: 78.20%

Substance: [(Ac-Ada)^0-Tyr^1, D-Arg^2, Cpa^6, Ala^8, Har^9, Tyr(Me)^10, His^11, Abu^15, His^20, Nle^27, D-Arg^28, Har^29]hGH-RH(1-29)NH2 [Peptide 11111]
- Tumor growth after 4 weeks (%) [6]: 2005 ± 541%
- Tumor growth after 5 weeks (%) [7]: 1215 ± 243%

Substance: Tyr-Ala-Asp-Ala-lle^5-Phe-Thr-Asn-Ser-Tyr^10-Arg-Lys-Val-Leu-Gly^15-Gln-Leu-Ser-Ala-Arg^20-Lys-Leu-Leu-Gln-Asp^25-Ile-Met-Ser-Arg^29-NH2 [GH-RH(1-29)]
- Potency relative to native GH-RH (pituitary receptors): ≥ 50%

Substance: [Dca^0-Tyr^1, D-Arg^2, Cpa^6, Ala^8, Har^9, Tyr(Me)^10, His^11, Abu^15, His^20, Nle^27, D-Arg^28, Har^29]hGH-RH(1-29)NH2 [Peptide 11109]
- Tumor growth after 2 weeks (%) ([8]; 2 μg/day s.c., 14 days): 318%
- Tumor growth after 2 weeks (%) ([8]; 5 μg/day s.c., 14 days): 217%
- Inhibition of PC-3 tumor growth compared with reference peptide JMR-132 ([8]; Peptide 1109 5 μg/day, Peptide 11109 5 and 2 μg/day, JMR-132 10 μg/day, 14 days): inhibited the growth of PC-3 tumors more potently than reference peptide JMR-132
- Inhibition (%) ([8]; 2 μg/day s.c.): 55.55%
- Inhibition (%) ([8]; 5 μg/day s.c.): 69.68%
- Effect on the growth of H-460 lung cancers in vivo ([5]; 28 days): had no effect
- Tumor growth after 4 weeks (%) ([5]; 28 days): 7890 ± 4127%
- Inhibition (%) [5]: 0.05%
